In PubChem BioAssay (NCI):
Where “and” joins values, the source holds several entries; their conditions need not be identical. Identical values can stand only once.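 All cell lines were grown in 96-well plates and treated with compound for 48 hours. GI50 marks 50% less growth. TGI denotes the concentration required for complete inhibition of growth.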

What was measured:
Experiment in all cases: NCI tumour cell line growth inhibition, 48 h
COLO 205 colon = system: COLO 205 colon
EKVX NSCLC = system: EKVX NSCLC
HCT-15 colon = system: HCT-15 colon
NCI-H460 lung = system: NCI-H460 lung
SF-539 CNS = system: SF-539 CNS
SK-MEL-2 melanoma = system: SK-MEL-2 melanoma
SK-MEL-5 melanoma = system: SK-MEL-5 melanoma
SW-620 colon = system: SW-620 colon
DU-145 prostate = system: DU-145 prostate
MDA-MB-435 = system: MDA-MB-435

Structure (SMILES) | TGI (COLO 205 colon) | TGI (EKVX NSCLC) | TGI (HCT-15 colon) | TGI (NCI-H460 lung) | TGI (SF-539 CNS) | TGI (SK-MEL-2 melanoma) | TGI (SK-MEL-5 melanoma) | TGI (SW-620 colon) | TGI (DU-145 prostate) | TGI (MDA-MB-435) | GI50 (HCT-15 colon) | GI50 (NCI-H460 lung) | GI50 (SK-MEL-2 melanoma) | GI50 (SK-MEL-5 melanoma) | GI50 (SW-620 colon) | GI50 (COLO 205 colon) | GI50 (DU-145 prostate) | GI50 (EKVX NSCLC) | GI50 (MDA-MB-435) | GI50 (SF-539 CNS)
COC(=O)C1=C(OC)c2cc3c(cc2C(c2cc(OC)c(OC)c(OC)c2)C1C(=O)OC)OCO3 (configuration not stated) | > 100 µM | > 100 µM | > 100 µM | > 100 µM | > 100 µM | > 100 µM | > 100 µM | > 100 µM | – | – | – | – | – | – | – | – | – | – | – | –
O=C1C2c3[nH]c4ccccc4c3[C@@H]3CCCCCCCCCCC3C2C(=O)N1c1ccccc1 (some centres not stated) | 58.5 µM | > 100 µM | > 100 µM | 34.8 µM | 24.3 µM | – | > 100 µM | 35.5 µM | – | – | – | – | – | – | – | – | – | – | – | –
Cn1cnc([N+](=O)[O-])c1Sc1ccccn1 | > 100 µM | > 100 µM | – | > 100 µM | > 100 µM | > 100 µM | > 100 µM | > 100 µM | – | – | – | – | – | – | – | – | – | – | – | –
O=[N+]([O-])c1cccc([N+](=O)[O-])c1S(=O)(=O)c1ccccc1 | 19.4 µM | 42.8 µM | 4.1 µM | 46.7 µM | 30.2 µM | – | 28.3 µM | 5.9 µM | 20 µM | 14.6 µM | – | – | – | – | – | – | – | – | – | –
Cc1c[nH]c2c1C13CC1CN(C(=O)c1cc4cc(NC(=O)c5cc6ccccc6o5)ccc4[nH]1)C3=CC2=O (configuration not stated) | – | – | < 0.001 µM | < 0.001 µM | < 0.001 µM | < 0.001 µM | < 0.001 µM | 1.07 nM and 0.00324 µg/mL | – | – | > 1.17 ng/mL | > 1.17 ng/mL | > 1.17 ng/mL | > 1.17 ng/mL | > 1.17 ng/mL | – | – | – | – | –
COc1ccc2cccc(C(=O)c3ccc(C)c4c3CCC4)c2c1 | 68.3 µM | > 100 µM | 53.3 µM | > 100 µM | – | 98.2 µM | 36.8 µM | > 100 µM | – | – | – | – | – | – | – | – | – | – | – | –
CCN(CC)CCN1C(=O)c2c(c(C)c3c(oc4cc(O)ccc43)c2C)C1=O | 5.77 µM | 3.3 µM | 3.32 µM | 3.37 µM | 3.05 µM | 5.27 µM | 2.92 µM | – | 3.41 µM | 3.08 µM | 1690 nM | 1750 nM | 2350 nM | 1560 nM | – | 2180 nM | 1720 nM | 1690 nM | 1570 nM | 1680 nM
CC#C[C@@]1(O)CCCC[C@@H]1O | > 100 µM | > 100 µM | > 100 µM | > 100 µM | > 100 µM | > 100 µM | > 100 µM | > 100 µM | – | – | – | – | – | – | – | – | – | – | – | –
Cn1c2c([N+](=O)[O-])[se]nc2c(=O)n1-c1ccc([N+](=O)[O-])cc1 | 4.23 µM | 5.23 µM | 2.73 µM | 6.77 µM | 4.49 µM | 11.2 µM | 14.6 µM | 1.48 µM | – | – | – | – | – | – | – | – | – | – | – | –
C/C1=C\[C@H](C)C[C@H](C)OC(=O)C[C@H](c2ccc(O)cc2)NC(=O)[C@@H](Cc2c(Br)[nH]c3ccccc23)N(C)C(=O)[C@H](C)NC(=O)[C@@H](C)C1 | 0.887 µM | 0.746 µM and 1.83 µM | 6.01 µM | 23.6 µM | 0.622 µM and 0.0655 µM | 0.251 µM and 0.0476 µM | 0.578 µM and 0.391 µM | > 100 µM | – | 17.7 µM | 488 nM | 12.6 nM | 99.9 nM and 20.7 nM | 45.1 nM | 34.7 nM | < 13.2 nM | – | 132 nM | 44.5 nM | 238 nM
O=C(c1cc(O)ccc1O)c1ccccc1C(Cl)(Cl)Cl | > 100 µM | > 100 µM | > 100 µM | > 100 µM | > 100 µM | > 100 µM | > 100 µM | > 100 µM | – | – | – | – | – | – | – | – | – | – | – | –
CCOC(=O)C1N(S(=O)(=O)c2ccc(C)cc2)CCC12c1ccccc1N(C(C)=O)C2C(/C=C/C(=O)OC)=C/C(=O)OC (configuration not stated) | > 100 µM | > 100 µM | – | > 100 µM | > 100 µM | – | > 100 µM | > 100 µM | – | – | – | – | – | – | – | – | – | – | – | –
NCCCCCS(=O)(=O)O | > 100 µM | > 100 µM | > 100 µM | > 100 µM | > 100 µM | > 100 µM | > 100 µM | > 100 µM | – | – | – | – | – | – | – | – | – | – | – | –
CCOC(=O)c1sc(-c2ccc(OS(=O)(=O)c3cccs3)c(C=O)c2)nc1C | 3.9 µM | 5.4 µM | 2.13 µM | 4.96 µM | 3.42 µM | 4.78 µM | 3 µM | – | 6.78 µM | 3.05 µM | 561 nM | 2220 nM | 2060 nM | 1560 nM | – | 2010 nM | 2430 nM | 1880 nM | 1590 nM | 1820 nM
O=NC1c2cccc3cccc(c23)C1N=O (configuration not stated) | 17.2 µM | 6.76 µM | 5.02 µM | 17.5 µM | 26.6 µM | – | 30.7 µM | 12.7 µM | > 100 µM | 25.7 µM | – | – | – | – | – | – | – | – | – | –
COC(=O)C(=O)C1(CCC(C)=O)c2ccccc2-c2ccccc21 | > 100 µM | > 100 µM | > 100 µM | > 100 µM | – | > 100 µM | > 100 µM | > 100 µM | – | – | – | – | – | – | – | – | – | – | – | –
Cc1ccc2c(c1)C(=O)c1c-2n(CCCN)c(=O)c2cc([N+](=O)[O-])ccc12 | 0.913 µM | 2.22 µM | 1.01 µM | 0.629 µM | 1.44 µM | 4.15 µM | 3.6 µM | – | 0.89 µM | 1.09 µM | 351 nM | 34.9 nM | 1370 nM | 1100 nM | – | 178 nM | 262 nM | 917 nM | 413 nM | 732 nM
N/C(=N\NS(=O)(=O)c1ccccc1)Oc1ccc(Cl)cc1 | > 100 µM | > 100 µM | > 100 µM | > 100 µM | > 100 µM | > 100 µM | > 100 µM | 19.5 µM | – | – | – | – | – | – | – | – | – | – | – | –
CCOC(=O)C(C)(C)Oc1ccc2c(=O)cc(-c3ccccc3)oc2c1 | 36.8 µM | 84.8 µM | 54.8 µM | > 100 µM | 38.2 µM | 31.5 µM | 28.2 µM | 48.5 µM | – | – | – | – | – | – | – | – | – | – | – | –
C[Si](C)(C)/C=C/CCC(C=O)(CCCl)c1ccccc1 (configuration not stated) | 85.4 µM | > 100 µM | 46.1 µM | > 100 µM | > 100 µM | 29.7 µM | 33.9 µM | > 100 µM | – | – | – | – | – | – | – | – | – | – | – | –
Cc1cc(NS(=O)(=O)c2ccc(Nc3c4ccccc4nc4c(C(=O)Nc5ccc(S(=O)(=O)N=C(N)N)cc5)cccc34)cc2)no1 | > 100 µM | > 100 µM | > 100 µM | > 100 µM | > 100 µM | > 100 µM | > 100 µM | > 100 µM | – | – | – | – | – | – | – | – | – | – | – | –
